Assays:
control melanocytes = type: cell-based, human; details: 10 days exposure; only at the highest concentration step 5.0 μg/ml
[1] = tested on: Parkinson's melanocytes and normal adult control melanocytes; test: short time exposure (24 h), DNA synthesis by 3HdT incorporation and scintillation counts; type: cell-based, human; details: 24 h exposure; 0.5 μg/ml to 5.0 μg/ml

SMILES | impact on the growth of the control melanocytes (control melanocytes) | difference in vulnerability between Parkinson's melanocytes and normal adult control melanocytes (DNA synthesis, 3HdT incorporation) [1]
CCCCC[C@H](O)/C=C/[C@H]1C=CC(=O)[C@@H]1C/C=C\CCCC(=O)O [PGA2] | negative impact on the growth | no significant different in vulnerability
CCCCC[C@H](O)/C=C/[C@H]1[C@H](O)CC(=O)[C@@H]1C/C=C\CCCC(=O)O [PGE2] | – | no significant different in vulnerability
CCCCC[C@H](O)/C=C/[C@@H]1[C@@H](C/C=C\CCCC(=O)O)[C@@H](O)C[C@H]1O [PGF2a] | – | no significant different in vulnerability
CCCCC[C@H](O)/C=C/[C@H]1C(=O)C=C[C@@H]1C/C=C\CCCC(=O)O [PGJ2] | negative impact on the growth | no significant different in vulnerability

Source: patent US20070071727A1, “Melanocytes in therapy of neurodegenerative diseases” (priority 2003, published 2007)
